Test results taken from patent publication US20260042755A1, “GPR6 INVERSE AGONISTS” (MapLight Therapeutics, Inc., priority 2022, published 2026).

How the values were obtained:
GPR3 = biological target: T1, GPR3 (Homo sapiens, UniProt P46089); test: GPR3 antagonist functional cAMP assay (LANCE Ultra cAMP TR-FRET, CHO cells stably expressing GPR3); assay type: cell-based; conditions: procedure of Example 24
T1 construct: expressed in transfected cells; host or cells: CHO cells
Method: (§1) Example 56. GPR6 and GPR3 Antagonist Functional cAMP Assay
(§2) CHO cells stably expressing GPR6 or GPR3 receptors were dissociated from cell culture flasks and incubated for 2 h at 37° C. in a 10 cm dish in a humidified incubator. Cells were dissociated, counted to have 1e6 cells/mL (4.5e6 cells needed/384-well plate), washed once in starved media, than in D-PBS and finally suspended in assay buffer (Krebs-Ringer Bicarbonate Buffer with 1800 mg/L glucose, without calcium chloride and sodium bicarbonate (Sigma) in the presence of 0.1% BSA and 150 μM of Ro 20-1724 Phosphodiesterase inhibitor).
(§3) Cells in suspension from above were plated in 384-well white Optiplate (PerkinElmer) at 10,000 cells/well/10 μl, briefly centrifuged prior direct addition of compounds ([…]) in 10 mM DMSO using a Tecan D300e Digital Dispenser, final DMSO in each well was normalized to 0.1%. Cells were incubated in the presence of compounds for 45 min at 37° C. in a humidified incubator.
(§4) To measure cAMP levels, LANCE® Ultra cAMP assay (Perkin Elmer), a homogeneous time-resolved fluorescence resonance energy transfer (TR-FRET) immunoassay was used following manufacturer's recommendations. Plates were shaken for 1 h at room temperature before reading on a Tecan InfiniteF200Pro multi-mode plate reader using standard FRET settings (Excitation 340 nm, Emission at 615 nm). FRET values were reported as readings obtained at 665 nm. Data were normalized to DMSO (0.1%) and reference compounds (100%) and fit to a 4-parameter logistical fit to generate antagonist IC50s.

GPR6 = biological target: T2, GPR6 (Homo sapiens, UniProt P46095); test: GPR6 antagonist functional cAMP assay (LANCE Ultra cAMP TR-FRET, CHO cells stably expressing GPR6); assay type: cell-based; conditions: procedure of Example 24
T2 construct: expressed in transfected cells; host or cells: CHO cells
T2 sequence (P46095 whole entry): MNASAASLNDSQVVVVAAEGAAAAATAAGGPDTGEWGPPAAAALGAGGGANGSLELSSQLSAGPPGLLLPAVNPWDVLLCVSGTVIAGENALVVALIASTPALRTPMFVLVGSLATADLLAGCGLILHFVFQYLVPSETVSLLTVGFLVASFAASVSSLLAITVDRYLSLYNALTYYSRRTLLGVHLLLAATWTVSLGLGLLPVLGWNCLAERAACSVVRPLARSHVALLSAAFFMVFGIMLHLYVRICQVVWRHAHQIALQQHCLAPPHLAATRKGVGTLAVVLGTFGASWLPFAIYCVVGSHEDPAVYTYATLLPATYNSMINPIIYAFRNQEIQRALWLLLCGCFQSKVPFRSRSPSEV
Method: as §1, §2, §3, §4

T1 sequence (P46089 whole entry, species assumed): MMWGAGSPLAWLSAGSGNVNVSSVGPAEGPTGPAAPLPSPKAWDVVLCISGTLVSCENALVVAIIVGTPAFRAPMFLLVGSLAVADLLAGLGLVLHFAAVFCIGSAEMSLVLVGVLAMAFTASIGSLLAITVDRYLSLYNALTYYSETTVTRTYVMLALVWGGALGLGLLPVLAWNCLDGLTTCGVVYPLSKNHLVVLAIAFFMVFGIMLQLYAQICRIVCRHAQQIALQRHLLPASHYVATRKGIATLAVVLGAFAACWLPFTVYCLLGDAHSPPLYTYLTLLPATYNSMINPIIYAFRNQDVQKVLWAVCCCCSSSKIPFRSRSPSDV

IC50 (GPR3) | IC50 (GPR6) | Compound
1 to 30 µM | 0.1 to 1 µM | COC[C@@H](O)c1cc2nc(N3CCC(Oc4ccc(F)cc4F)CC3)c(-c3cnn(C)c3)nc2cn1 (single isomer, unassigned) [Compound 642]
1 to 30 µM | < 0.1 µM | COC[C@H](O)c1cc2nc(N3CCC(Oc4ccc(F)cc4F)CC3)c(-c3cnn(C)c3)nc2cn1 (single isomer, unassigned) [Compound 643]
1 to 30 µM | < 0.1 µM | CC(C)(O)[C@@H](O)c1cc2nc(N3CCN(Cc4ccccc4F)CC3)c(-c3cnn(CF)c3)nc2cn1 (single isomer, unassigned) [Compound 647]
1 to 30 µM | 0.1 to 1 µM | CC(C)(O)[C@H](O)c1cc2nc(N3CCN(Cc4ccccc4F)CC3)c(-c3cnn(CF)c3)nc2cn1 (single isomer, unassigned) [Compound 648]
1 to 30 µM | 0.1 to 1 µM | CC(C)(O)[C@](C)(O)c1cc2nc(N3CCN(Cc4ccc(F)cc4F)CC3)c(-c3cnn(CF)c3)nc2cn1 (single isomer, unassigned) [Compound 649]
1 to 30 µM | 0.1 to 1 µM | CC(C)(O)[C@@](C)(O)c1cc2nc(N3CCN(Cc4ccc(F)cc4F)CC3)c(-c3cnn(CF)c3)nc2cn1 (single isomer, unassigned) [Compound 650]
1 to 30 µM | 0.1 to 1 µM | CC(C)(O)[C@](C)(O)c1cc2nc(N3CCC(Oc4ccc(F)cc4F)CC3)c(-c3cnn(C(F)F)c3)nc2cn1 (single isomer, unassigned) [Compound 655]
1 to 30 µM | 0.1 to 1 µM | CC(C)(O)[C@@](C)(O)c1cc2nc(N3CCC(Oc4ccc(F)cc4F)CC3)c(-c3cnn(C(F)F)c3)nc2cn1 (single isomer, unassigned) [Compound 656]
0.1 to 1 µM | < 0.1 µM | CC(=O)N1CCc2nc(N3CCC([C@H](F)c4ccc(F)cc4F)CC3)c(-c3cnn(C)c3)nc2C1 (single isomer, unassigned) [Compound 658]
0.1 to 1 µM | < 0.1 µM | CC(=O)N1CCc2nc(N3CCC([C@@H](F)c4ccc(F)cc4F)CC3)c(-c3cnn(C)c3)nc2C1 (single isomer, unassigned) [Compound 659]
1 to 30 µM | < 0.1 µM | CC(C)(O)C(C)(O)c1cc2nc(-c3cnn(C(F)F)c3)c(N3CCN(Cc4ccc(F)cc4F)CC3)nc2cn1 (single isomer, unassigned) [Compound 662]
1 to 30 µM | < 0.1 µM | CC(C)(O)C(C)(O)c1cc2nc(-c3cnn(C(F)F)c3)c(N3CCN(Cc4ccc(F)cc4F)CC3)nc2cn1 (single isomer, unassigned) [Compound 663]
1 to 30 µM | 0.1 to 1 µM | CC(C)(O)[C@](C)(O)c1cc2nc(N3CCC(Oc4ccc(F)cc4F)CC3)c(-c3cnn(C4CC4)c3)nc2cn1 (single isomer, unassigned) [Compound 664]
1 to 30 µM | 0.1 to 1 µM | CC(C)(O)[C@@](C)(O)c1cc2nc(N3CCC(Oc4ccc(F)cc4F)CC3)c(-c3cnn(C4CC4)c3)nc2cn1 (single isomer, unassigned) [Compound 665]
1 to 30 µM | 0.1 to 1 µM | CC(C)(O)[C@](C)(O)c1cc2nc(N3CCN(Cc4ccc(F)cc4F)CC3)c(-c3cnn(C4CC4)c3)nc2cn1 (single isomer, unassigned) [Compound 666]
1 to 30 µM | 0.1 to 1 µM | CC(C)(O)[C@@](C)(O)c1cc2nc(N3CCN(Cc4ccc(F)cc4F)CC3)c(-c3cnn(C4CC4)c3)nc2cn1 (single isomer, unassigned) [Compound 667]
1 to 30 µM | < 0.1 µM | CC(C)(O)C(O)c1cc2nc(-c3cnn(C(F)F)c3)c(N3CCN(Cc4ccccc4F)CC3)nc2cn1 (single isomer, unassigned) [Compound 668, 1-{2-[1-(difluoromethyl)-4-pyrazolyl]-3-{4-[(o-fluorophenyl)methyl]-1-piperazinyl}-1,4,6-triaza-7-naphthyl}-2-methyl-1,2-propanediol]

IC50 (GPR3) | IC50 (GPR6) | Compound
1 to 30 µM | 0.1 to 1 µM | CC(C)(O)[C@](C)(O)c1cc2nc(N3CCN(Cc4ccccc4F)CC3)c(-c3cnn(C(F)F)c3)nc2cn1 (single isomer, unassigned) [Compound 669]
0.1 to 1 µM | 0.1 to 1 µM | CC(C)(O)[C@@](C)(O)c1cc2nc(N3CCN(Cc4ccccc4F)CC3)c(-c3cnn(C(F)F)c3)nc2cn1 (single isomer, unassigned) [Compound 670]
1 to 30 µM | 0.1 to 1 µM | Cn1cc(-c2nc3cnc([C@@](C)(O)C(C)(C)O)cc3nc2N2CCC(Oc3ccc(F)cc3F)CC2)cn1 (single isomer, unassigned) [Compound 672]
1 to 30 µM | 0.1 to 1 µM | Cn1cc(-c2nc3cnc([C@](C)(O)C(C)(C)O)cc3nc2N2CCC(Oc3ccc(F)cc3F)CC2)cn1 (single isomer, unassigned) [Compound 673]
1 to 30 µM | 0.1 to 1 µM | CC(C)(O)[C@](C)(O)c1cc2nc(N3CCN(Cc4ccccc4F)CC3)c(-c3cnn(CF)c3)nc2cn1 (single isomer, unassigned) [Compound 675]
1 to 30 µM | 0.1 to 1 µM | CC(C)(O)[C@@](C)(O)c1cc2nc(N3CCN(Cc4ccccc4F)CC3)c(-c3cnn(CF)c3)nc2cn1 (single isomer, unassigned) [Compound 676]
1 to 30 µM | 0.1 to 1 µM | CC(C)(O)[C@](C)(O)c1cc2nc(N3CCC(Oc4ccc(F)cc4F)CC3)c(-c3cnn(CF)c3)nc2cn1 (single isomer, unassigned) [Compound 677]
1 to 30 µM | 0.1 to 1 µM | CC(C)(O)[C@@](C)(O)c1cc2nc(N3CCC(Oc4ccc(F)cc4F)CC3)c(-c3cnn(CF)c3)nc2cn1 (single isomer, unassigned) [Compound 678]
0.1 to 1 µM | < 0.1 µM | COC[C@@H](O)c1cc2nc(-c3cnn(C)c3)c(N3CCC(Oc4ccc(F)cc4F)CC3)nc2cn1 (single isomer, unassigned) [Compound 680]
0.1 to 1 µM | < 0.1 µM | COC[C@H](O)c1cc2nc(-c3cnn(C)c3)c(N3CCC(Oc4ccc(F)cc4F)CC3)nc2cn1 (single isomer, unassigned) [Compound 681]
1 to 30 µM | < 0.1 µM | CC(C)(O)[C@@](C)(O)c1cc2nc(-c3cnn(C4CC4)c3)c(N3CCN(Cc4ccc(F)cc4F)CC3)nc2cn1 (single isomer, unassigned) [Compound 682]
1 to 30 µM | 0.1 to 1 µM | CC(C)(O)[C@H](O)c1cc2nc(-c3cnn(C(F)F)c3)c(N3CCN(Cc4ccccc4F)CC3)nc2cn1 (single isomer, unassigned) [Compound 685]
0.1 to 1 µM | < 0.1 µM | CC(C)(O)[C@@H](O)c1cc2nc(-c3cnn(C(F)F)c3)c(N3CCN(Cc4ccccc4F)CC3)nc2cn1 (single isomer, unassigned) [Compound 686]
0.1 to 1 µM | 0.1 to 1 µM | COC[C@@](C)(O)c1cc2nc(-c3cnn(C)c3)c(N3CCC(Oc4ccc(F)cc4F)CC3)nc2cn1 (single isomer, unassigned) [Compound 688]
0.1 to 1 µM | 0.1 to 1 µM | COC[C@](C)(O)c1cc2nc(-c3cnn(C)c3)c(N3CCC(Oc4ccc(F)cc4F)CC3)nc2cn1 (single isomer, unassigned) [Compound 689]
1 to 30 µM | 0.1 to 1 µM | CCn1cc(-c2nc3cnc([C@@](C)(O)C(C)(C)O)cc3nc2N2CCN(Cc3ccc(F)cc3F)CC2)cn1 (single isomer, unassigned) [Compound 690]
